In brackets after ≈: the same amount, converted by molar mass. Several values for one entry are separate records, joined by “and”; a condition that tells them apart may be missing. Equal entries are not always repeated. Where two headings read alike, the source gives them in different places.
What was measured:
[1] = tested on: Class C beta-lactamase CMY/DHA (E. coli M50); test: Beta-lactamase enzyme inhibition (Nitrocefin, crude enzyme); format: biochemical
Procedure: (§1) Absorbance was measured at 485 nm by UV-spectrophotometer. The IC50 was calculated by plotting absorbance against concentration through Sigmoidal dose response curve using Graph Pad software.
(§2) The enzyme inhibition was expressed as IC50.

[2] = molecular target: T1, Class A beta-lactamase SHV 18 (K. pneumoniae ATCC 700603) (Klebsiella pneumoniae, UniProt P0AD64, E235K/G234A/I4F/R39S); test: as above; format: biochemical; conditions: Class A, K. pneumoniae ATCC 700603 (SHV 18); read-out: Beta-lactamase enzyme inhibition IC50
T1 sequence (P0AD64 1-286 I4F/R39S/G234A/E235K): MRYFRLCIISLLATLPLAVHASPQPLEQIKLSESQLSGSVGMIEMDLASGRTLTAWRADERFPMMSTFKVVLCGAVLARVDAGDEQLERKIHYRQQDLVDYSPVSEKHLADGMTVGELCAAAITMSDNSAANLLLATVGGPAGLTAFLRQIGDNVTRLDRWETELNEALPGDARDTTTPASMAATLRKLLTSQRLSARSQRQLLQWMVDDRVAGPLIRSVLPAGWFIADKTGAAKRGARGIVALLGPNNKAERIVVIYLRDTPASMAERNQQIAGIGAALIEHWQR
Procedure: as §1, §2

[3] = molecular target: T2, Class D beta-lactamase OXA 23 (A. baumannii NCTC 13301) (Acinetobacter baumannii, UniProt Q9L4P2); test: as above; format: biochemical; conditions: Class D, A. baumannii NCTC 13301 (OXA 23); read-out: Beta-lactamase enzyme inhibition IC50
T2 construct: preincubated mixture of crude enzyme and the compounds; endogenous in cells; host or cells: A. baumannii NCTC 13301
Procedure: as §1, §2

[4] = molecular target: Class D beta-lactamase OXA 26 (A. baumannii NCTC 13303) (Acinetobacter baumannii, UniProt Q9F0V2); test: as above; format: biochemical; conditions: A. baumannii NCTC 13303 (OXA 26), read-out: Beta-lactamase enzyme inhibition IC50
Procedure: as §1

[5] = molecular target: T3, Class C beta-lactamase P99 (E. cloacae J137) (Enterobacter cloacae, UniProt P05364); test: as above; format: biochemical
T3 construct: preincubated mixture of crude enzyme and the compounds; endogenous in cells; host or cells: E. cloacae J137
Procedure: as §1

E. coli M50 = test: Zone of inhibition, agar well, with and without ceftazidime; format: cell-based; conditions: E. coli M50
Procedure: (§3) In a typical experiment, two sets of plates containing growth media (Molten Mueller Hilton Agar) and bacterial strains were prepared. One set of plates was taken as control (without ceftazidime) and other set contained ceftazidime. The media was allowed to solidify and wells were punched later, into which varying concentrations of compounds according to the invention were poured. A two-fold serial dilution range of each of the compounds according to invention was prepared and 50 μl of each of the dilution was added into the punched well. The plates were then incubated at 37° C. for 18 hours in BOD incubator and diameters of zone of inhibition were measured after the completion of the incubation.
(§4) The Table 6 provides the antibacterial activity of the combination comprising compounds according to invention and ceftazidime. The compounds according to invention were tested at 0.12, 0.25, 0.5 and 1 μg/well.

E. coli NCTC 13353 = test: as above; format: cell-based; conditions: E. coli NCTC 13353
Procedure: as §3, §4

K. pneumoniae B 88 = test: Antibacterial activity (MIC), agar dilution per CLSI; format: cell-based; conditions: Klebsiella pneumoniae, B88
Procedure: (§5) The biological activity of representative compounds according to the invention against various bacterial strains was investigated. In a typical study, overnight grown bacterial cultures were diluted appropriately and inoculated on the agar media containing doubling dilutions of the test compounds. Observations for growth or no growth was performed after 16-20 hours of incubation at 35±2° C. in the ambient air. The overall procedure was performed as per Clinical and Laboratory Standards Institute (CLSI) recommendations, (Clinical and Laboratory Standards Institute (CLSI), Performance Standards for Antimicrobial Susceptibility Testing, 20th Informational Supplement, M07-A9, Volume 32, No. 2, 2012). Molten Mueller Hinton Agar (BD, USA) containing serial dilutions of each antibacterial agent were poured on to the plates and allowed to solidify. Appropriate suspensions from the freshly grown cultures were prepared in normal saline so that about 10^4 CFU/spot of the organism was delivered on to the drug containing agar plates using automated multipoint inoculator (Mast, UK). The plates were incubated in Biochemical oxygen demand (BOD) incubator at 37° C. for 18 hours and then examined for growth.
(§6) Table 3 details the antibacterial activity of representative compound of Formula (I), (2S,5R)-sulfuric acid mono-{2-[N′-(2-(S)-pyrrolidin-2-yl-acetyl)-hydrazinocarbonyl]-7-oxo-1,6-diaza-bicyclo[3.2.1]oct-6-yl}ester (Compound of Example 1), against various Multi Drug Resistant (MDR) Gram-negative bacterial strains. The activities are expressed as Minimum Inhibitory Concentrations (MICs) (mcg/ml).

E. coli NCTC 13351 = test: as above; format: cell-based; conditions: Escherichia coli, NCTC13351
Procedure: as §5, §6

K. pneumoniae H 525 = test: as above; format: cell-based; conditions: Klebsiella pneumoniae, H525
Procedure: as §5, §6

E. coli 7 MP = test: as above; format: cell-based; conditions: Escherichia coli
Procedure: as §5, §6

E. cloacae M 20 = test: as above; format: cell-based; conditions: Enterobacter cloacae, M20
Procedure: as §5, §6

K. pneumoniae S 21 = test: as above; format: cell-based; conditions: Klebsiella pneumoniae, S21
Procedure: as §5, §6

E. coli M 49 = test: as above; format: cell-based; conditions: Escherichia coli, M49
Procedure: as §5, §6

E. coli NCTC 13352 = test: as above; format: cell-based; conditions: Escherichia coli, NCTC13352
Procedure: as §5, §6

P. aeruginosa ATCC 27853 = test: as above; format: cell-based; conditions: Pseudomonas aeruginosa, ATCC27853
Procedure: as §5, §6

P. aeruginosa 2779 = test: as above; format: cell-based; conditions: Pseudomonas aeruginosa
Procedure: as §5, §6

E. coli M 50 = test: as above; format: cell-based; conditions: Escherichia coli, M50
Procedure: as §5, §6

[6] = compound 0.25 μg/well + Ceftazidime 10 μg/ml
[7] = compound 0.5 μg/well + Ceftazidime 10 μg/ml
[8] = compound 1 μg/well + Ceftazidime 10 μg/ml
[9] = compound […] + Ceftazidime 10 μg/ml

T2 sequence (Q9L4P2 18-273): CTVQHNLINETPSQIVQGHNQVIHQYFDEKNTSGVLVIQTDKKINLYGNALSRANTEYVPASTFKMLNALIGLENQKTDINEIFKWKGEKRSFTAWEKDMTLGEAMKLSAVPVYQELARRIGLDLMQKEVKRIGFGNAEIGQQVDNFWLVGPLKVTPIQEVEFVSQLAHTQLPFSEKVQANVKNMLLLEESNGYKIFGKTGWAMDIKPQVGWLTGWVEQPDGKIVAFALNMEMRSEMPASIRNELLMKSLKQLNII
T3 sequence (P05364 21-381): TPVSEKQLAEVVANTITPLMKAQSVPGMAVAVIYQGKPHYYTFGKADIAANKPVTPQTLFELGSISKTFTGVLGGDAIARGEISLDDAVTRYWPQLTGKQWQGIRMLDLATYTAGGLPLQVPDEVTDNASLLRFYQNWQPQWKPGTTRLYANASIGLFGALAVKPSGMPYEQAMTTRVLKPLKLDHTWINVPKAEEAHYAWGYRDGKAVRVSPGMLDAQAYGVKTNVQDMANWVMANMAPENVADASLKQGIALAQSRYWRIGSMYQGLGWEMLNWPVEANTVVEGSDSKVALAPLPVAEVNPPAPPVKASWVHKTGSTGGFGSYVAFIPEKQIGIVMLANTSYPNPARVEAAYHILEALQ
Chain of Class D beta-lactamase OXA 26 (A. baumannii NCTC 13303) (Q9F0V2 entry or part of it): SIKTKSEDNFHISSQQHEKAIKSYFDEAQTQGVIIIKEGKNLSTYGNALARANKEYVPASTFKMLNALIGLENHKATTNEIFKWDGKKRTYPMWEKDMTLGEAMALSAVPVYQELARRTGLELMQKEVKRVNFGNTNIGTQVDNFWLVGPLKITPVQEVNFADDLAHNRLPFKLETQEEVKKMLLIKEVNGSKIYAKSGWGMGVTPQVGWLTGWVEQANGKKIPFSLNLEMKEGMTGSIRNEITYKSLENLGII

O=C(C[C@@H]1CCCN1)NNC(=O)[C@@H]1CC[C@@H]2CN1C(=O)N2OS(=O)(=O)O [Example 1, (2S,5R)-Sulfuric acid mono-{2-[N′-(2-(S)-pyrrolidin-2-yl-acetyl)-hydrazinocarbonyl]-7-oxo-1,6-diaza-bicyclo[3.2.1]oct-6-yl}ester]
IC50 [1]: 60 nM
IC50 ([1]; listed as Compound of Example 1): 65 nM
IC50 [2]: 80 nM and 81 nM
IC50 [3]: 2390 nM
IC50 [4]: 4770 nM
IC50 [5]: 27 nM
Diameter of Zone of Inhibition, Compound + Ceftazidime (10 μg/ml) (E. coli M50; [6]): 19 mm
Diameter of Zone of Inhibition, Compound + Ceftazidime (10 μg/ml) (E. coli M50; [7]): 20.5 mm
Diameter of Zone of Inhibition, Compound + Ceftazidime (10 μg/ml) (E. coli M50; [8]): 22.5 mm
Diameter of Zone of Inhibition, Compound + Ceftazidime (10 μg/ml) (E. coli M50; [9]): 17 mm
zone of inhibition at […] (E. coli M50; Escherichia coli, compound alone, 0.12 μg/well, read-out: Diameter of Zone of Inhibition, Compound): 10.5 mm
zone of inhibition at 0.25 µg/disc (E. coli M50; Escherichia coli, compound alone, 0.25 μg/well, read-out: Diameter of Zone of Inhibition, Compound): 14 mm
zone of inhibition at 0.5 µg/disc (E. coli M50; Escherichia coli, compound alone, 0.5 μg/well, read-out: Diameter of Zone of Inhibition, Compound): 16 mm
zone of inhibition at 1 µg/disc (E. coli M50; Escherichia coli, compound alone, 1 μg/well, read-out: Diameter of Zone of Inhibition, Compound): 18 mm
Diameter of Zone of Inhibition, Compound + Ceftazidime (10 μg/ml) (E. coli NCTC 13353; [6]): 26 mm
Diameter of Zone of Inhibition, Compound + Ceftazidime (10 μg/ml) (E. coli NCTC 13353; [7]): 28 mm
Diameter of Zone of Inhibition, Compound + Ceftazidime (10 μg/ml) (E. coli NCTC 13353; [8]): 31 mm
Diameter of Zone of Inhibition, Compound + Ceftazidime (10 μg/ml) (E. coli NCTC 13353; [9]): 22 mm
zone of inhibition at […] (E. coli NCTC 13353; Escherichia coli, NCTC13353, compound alone, 0.12 μg/well, read-out: Diameter of Zone of Inhibition, Compound): 11.5 mm
zone of inhibition at 0.25 µg/disc (E. coli NCTC 13353; Escherichia coli, NCTC13353, compound alone, 0.25 μg/well, read-out: Diameter of Zone of Inhibition, Compound): 14 mm
zone of inhibition at 0.5 µg/disc (E. coli NCTC 13353; Escherichia coli, NCTC13353, compound alone, 0.5 μg/well, read-out: Diameter of Zone of Inhibition, Compound): 15 mm
zone of inhibition at 1 µg/disc (E. coli NCTC 13353; Escherichia coli, NCTC13353, compound alone, 1 μg/well, read-out: Diameter of Zone of Inhibition, Compound): 16.5 mm
MIC (K. pneumoniae B 88): 0.5 µg/mL (≈ 1.28 µM)
MIC (E. coli NCTC 13351): 0.5 µg/mL (≈ 1.28 µM)
MIC (K. pneumoniae H 525): 0.5 µg/mL (≈ 1.28 µM)
MIC (E. coli 7 MP): 1 µg/mL (≈ 2.55 µM)
MIC (E. cloacae M 20): 0.5 µg/mL (≈ 1.28 µM)
MIC (K. pneumoniae S 21): 2 µg/mL (≈ 5.11 µM)
MIC (E. coli M 49): 2 µg/mL (≈ 5.11 µM)
MIC (E. coli NCTC 13352): 0.5 µg/mL (≈ 1.28 µM)
MIC (P. aeruginosa ATCC 27853): 8 µg/mL (≈ 20.4 µM)
MIC (P. aeruginosa 2779): 8 µg/mL (≈ 20.4 µM)
MIC (E. coli M 50): 0.5 µg/mL (≈ 1.28 µM)

— US9657022B2, “7-OXO-1,6-diazabicyclo[3.2.1]octane derivatives and their use as antibacterial agents” (WOCKHARDT LIMITED, priority 2014, dated 2017)
